# Reference: patent US20090298781A1, “COMPOUNDS FOR THE INHIBITION OF APOPTOSIS” (CONSEJO SUPERIOR DE, priority 2005, published 2009)
# Several values for one entry are separate records, joined by “and”; a condition that tells them apart may be missing. Identical values can stand only once.
# Legend:
# Format in all cases: cell-based
# Saos-2 cell line = assay: MTT assay, toxicity (cell viability), Saos-2
# Procedure: (§1) The MTT assay measures cell proliferation as well as reduction in cell viability when metabolic events lead to apoptosis or necrosis. It can also be used to assess the rate of survival of a given cell line when it is incubated in the presence of xenobiotics. The reduction of tetrazolium salts is accepted as a reliable way to analyse cell proliferation. The yellow tetrazolium MTT (3-(4,5-dimethylthiazolyl-2)-2,5-diphenyltetrazolium bromide) is reduced by metabolically active cells and results in the intracellular formation of purple formazan that can be spectrophotometrically measured after solubilisation with DMSO.
# (§2) The MTT assay was used in this invention to assess the toxicity of compounds at different concentrations. To analyse their potential impairment in cell viability, compounds were added to Saos-2 and U937 cell lines at different concentrations and incubated at different times. Results are expressed by percentage cell viability.
# [1] = system: Caspase activity, U937 cell extracts; assay: Caspase inhibition assay, U937 cell extracts; details: for inhibition at 1 µM / inhibition at 5 µM: Homo sapiens, U-937; for inhibition at 5 µM / % Caspase inhibition: 5 μM; for % Inh. caspase: 50 μM drug-eq.
# Procedure: (§3) The time-dependent inhibition of caspase induced by the compounds described in this invention was analysed. […] Caspase activity was assayed using Saos-2 or U937 cell extracts and Ac-DEVD-afc (N-acetyl-Asp-Glu-Val-Asp-afc(7-amino-4-trifluoromethyl coumarin)) as substrate (20 μM). Caspase activity was continuously monitored by the liberation of fluorescent afc using a Cytofluor 4000 fluorimeter (excitation 400 nm; emission 508 nm) for 1 hour. The effect of the compounds on the caspase activity was expressed as the percentage of inhibition in the fluorescence signal of treated cells vs. the non-treated cells (control).
# Caspase activity, U2-OS = assay: Caspase inhibition assay, U2-OS; details: for inhibition at 1 µM / inhibition at 5 µM: Homo sapiens, U2OS; for inhibition at 5 µM / % Caspase inhibition: 5 μM
# Caspase activity, HeLa = assay: Caspase inhibition assay, HeLa; details: for inhibition at 1 µM / inhibition at 5 µM: Homo sapiens; for inhibition at 5 µM / % Caspase inhibition: 5 μM
# [2] = system: Caspase activity, Saos-2 cell extracts; assay: Caspase inhibition assay, Saos-2 cell extracts; details: for inhibition at 1 µM: Homo sapiens; for % Caspase inhibition: 5 μM; for % Inh. caspase: 50 μM drug-eq.
# Procedure: as §3
# U937 cell line = assay: MTT assay, toxicity (cell viability), U937
# Procedure: as §1, §2
# [3] = system: Apaf-1 induced apoptosis, U937 cells; assay: Inhibition of Apaf-1-induced apoptosis, cellular assay, U937; details: U937 treated with apoptosome activator, 50 μM drug-eq
# Procedure: (§4) The time-dependent inhibition of caspase induced by the compounds described in this invention was analysed. Cell lines were grown in the presence or absence of compounds (50 μM) at different times. Caspase activity was assayed using Saos-2 or U937 cell extracts and Ac-DEVD-afc (N-acetyl-Asp-Glu-Val-Asp-afc(7-amino-4-trifluoromethyl coumarin)) as substrate (20 μM). Caspase activity was continuously monitored by the liberation of fluorescent afc using a Cytofluor 4000 fluorimeter (excitation 400 nm; emission 508 nm) for 1 hour. The effect of the compounds on the caspase activity was expressed as the percentage of inhibition in the fluorescence signal of treated cells vs. the non-treated cells (control).
# (§5) The activity of the compounds regards their specific target within the apoptotic machinery was assessed. Apaf-1 oligomerisation is a molecular event that leads to the activation of the apoptosome formation, which ends up in the induction of apoptosis. These experiments were performed in cell-free and in cellular assays.
# (§6) For the cellular assays, Saos-2 and U937 cells were treated with an apoptosome activator (Nguyen and Wells, Proc. Natl. Acad. Sci. USA 2003, 100:7533-7538), which specifically induces Apaf-1 oligomerisation. […] The capacity of the compounds of inhibiting the Apaf-1 induced apoptosis was analysed by the inhibition of caspase activity (see above).
# [4] = system: Apaf-1 induced apoptosis, Saos-2 cells; assay: Inhibition of Apaf-1-induced apoptosis, cellular assay, Saos-2; details: Saos-2 treated with apoptosome activator, 50 μM drug-eq
# Procedure: as §4, §5, §6
compound,measurement,setting,value
"NC(=O)CN(CCc1ccc(Cl)cc1Cl)C(=O)C1CC(=O)N(CCc2ccc(Cl)cc2Cl)CC(=O)N1CCC(c1ccccc1)c1ccccc1 (stereo not shown) [I.1, 1-[2-(2,4-Dichlorophenyl)ethyl]-4-(3,3-diphenylpropyl)-3,7-dioxo[1,4]-diazepane-5-carboxylic acid carbamoylmethyl-[2-(2,4-dichlorophenyl)-ethyl]amide]",% Cell viability,"Saos-2 cell line; Saos-2, 24 h, 1 μM",99%
same,% Cell viability,"Saos-2 cell line; Saos-2, 24 h, 5 μM",100%
same,% Cell viability,"Saos-2 cell line; Saos-2, 24 h, 10 μM",96% and 100%
same,% Cell viability,"Saos-2 cell line; Saos-2, 24 h, 25 μM",63%
same,% Cell viability,"Saos-2 cell line; Saos-2, 24 h, 50 μM",19%
same,% Cell viability,"Saos-2 cell line; Saos-2, 48 h, 1 μM",100% and 97%
same,% Cell viability,"Saos-2 cell line; Saos-2, 48 h, 5 μM",100% and 94%
same,% Cell viability,"Saos-2 cell line; Saos-2, 48 h, 10 μM",100% and 97%
same,% Cell viability,"Saos-2 cell line; Saos-2, 48 h, 25 μM",19%
same,% Cell viability,"Saos-2 cell line; Saos-2, 48 h, 50 μM",11%
same,% Cell viability,"Saos-2 cell line; Saos-2, 72 h, 1 μM",89%
same,% Cell viability,"Saos-2 cell line; Saos-2, 72 h, 5 μM",88%
same,% Cell viability,"Saos-2 cell line; Saos-2, 72 h, 10 μM",80%
same,% Cell viability,"Saos-2 cell line; Saos-2, 72 h, 25 μM",8%
same,inhibition at 1 µM,"[1]; U937, 24 h",0%
same,inhibition at 5 µM,"[1]; U937, 24 h",19%
same,inhibition at 1 µM,"[1]; U937, 48 h",14%
same,inhibition at 5 µM,"[1]; U937, 48 h",19%
same,inhibition at 1 µM,"[1]; U937, 72 h",12%
same,inhibition at 5 µM,"[1]; U937, 72 h",46%
same,inhibition at 1 µM,"Caspase activity, U2-OS; 24 h",0%
same,inhibition at 5 µM,"Caspase activity, U2-OS; 24 h",0%
same,inhibition at 1 µM,"Caspase activity, U2-OS; 48 h",58%
same,inhibition at 5 µM,"Caspase activity, U2-OS; 48 h",54%
same,inhibition at 1 µM,"Caspase activity, U2-OS; 72 h",1%
same,inhibition at 5 µM,"Caspase activity, U2-OS; 72 h",25%
same,inhibition at 1 µM,"Caspase activity, HeLa; 24 h",29%
same,inhibition at 5 µM,"Caspase activity, HeLa; 24 h",31%
same,inhibition at 1 µM,"Caspase activity, HeLa; 48 h",75%
same,inhibition at 5 µM,"Caspase activity, HeLa; 48 h",78%
same,inhibition at 1 µM,"Caspase activity, HeLa; 72 h",34%
same,inhibition at 5 µM,"Caspase activity, HeLa; 72 h",33%
same,inhibition at 1 µM,"[2]; Saos-2, 24 h",21%
same,inhibition at 1 µM,"[2]; Saos-2, 48 h",17%
same,inhibition at 1 µM,"[2]; Saos-2, 72 h",4%
same,% Cell viability,"U937 cell line; U937, 24 h, 1 μM",100%
same,% Cell viability,"U937 cell line; U937, 24 h, 5 μM",98% and 90%
same,% Cell viability,"U937 cell line; U937, 24 h, 10 μM",95% and 87%
same,% Cell viability,"U937 cell line; U937, 24 h, 25 μM",59%
same,% Cell viability,"U937 cell line; U937, 24 h, 50 μM",27%
same,% Cell viability,"U937 cell line; U937, 48 h, 1 μM",100%
same,% Cell viability,"U937 cell line; U937, 48 h, 5 μM",97% and 94%
same,% Cell viability,"U937 cell line; U937, 48 h, 10 μM",99% and 83%
same,% Cell viability,"U937 cell line; U937, 72 h, 1 μM",98%
same,% Cell viability,"U937 cell line; U937, 72 h, 5 μM",89%
same,% Cell viability,"U937 cell line; U937, 72 h, 10 μM",67%
"NC(=O)CN(CC1CCCO1)C(=O)C1CC(=O)N(CCc2ccc(Cl)cc2Cl)CC(=O)N1CCC(c1ccccc1)c1ccccc1 (stereo not shown) [I.4, 1-[2-(2,4-Dichlorophenyl)ethyl]-4-(3,3-diphenylpropyl)-3,7-dioxo[1,4]diazepane-5-carboxylic acid carbamoylmethyl(tetrahydrofuran-2-ylmethyl)amide]",% Cell viability,"Saos-2 cell line; Saos-2, 24 h, 1 μM",100%
same,% Cell viability,"Saos-2 cell line; Saos-2, 24 h, 5 μM",97%
same,% Cell viability,"Saos-2 cell line; Saos-2, 24 h, 10 μM",100%
same,% Cell viability,"Saos-2 cell line; Saos-2, 48 h, 1 μM",100%
same,% Cell viability,"Saos-2 cell line; Saos-2, 48 h, 5 μM",98%
same,% Cell viability,"Saos-2 cell line; Saos-2, 48 h, 10 μM",99%
same,inhibition at 1 µM,"[1]; U937, 24 h",0%
same,inhibition at 1 µM,"[1]; U937, 48 h",12%
same,inhibition at 1 µM,"[1]; U937, 72 h",0%
same,inhibition at 1 µM,"Caspase activity, U2-OS; 24 h",0%
same,inhibition at 1 µM,"Caspase activity, U2-OS; 48 h",23%
same,inhibition at 1 µM,"Caspase activity, U2-OS; 72 h",54%
same,inhibition at 1 µM,"Caspase activity, HeLa; 24 h",48%
same,inhibition at 1 µM,"Caspase activity, HeLa; 48 h",14%
same,inhibition at 1 µM,"Caspase activity, HeLa; 72 h",35%
same,inhibition at 1 µM,"[2]; Saos-2, 24 h",55%
same,inhibition at 1 µM,"[2]; Saos-2, 48 h",9%
same,% Cell viability,"U937 cell line; U937, 24 h, 1 μM",100%
same,% Cell viability,"U937 cell line; U937, 24 h, 5 μM",99%
same,% Cell viability,"U937 cell line; U937, 24 h, 10 μM",87%
same,% Cell viability,"U937 cell line; U937, 48 h, 1 μM",99%
same,% Cell viability,"U937 cell line; U937, 48 h, 5 μM",94%
same,% Cell viability,"U937 cell line; U937, 48 h, 10 μM",95%
"COc1ccccc1CCN(CC(N)=O)C(=O)C1CC(=O)N(CCc2ccc(Cl)cc2Cl)CC(=O)N1CCC(c1ccccc1)c1ccccc1 (stereo not shown) [I.7, 1-[2-(2,4-Dichlorophenyl)ethyl]-4-(3,3-diphenylpropyl)-3,7-dioxo[1,4]diazepane-5-carboxylic acid carbamoylmethy-[2-(2-methoxyphenyl)ethyl]amide]",% Cell viability,"Saos-2 cell line; Saos-2, 24 h, 1 μM",95%
same,% Cell viability,"Saos-2 cell line; Saos-2, 24 h, 5 μM",99%
same,% Cell viability,"Saos-2 cell line; Saos-2, 24 h, 10 μM",98%
same,% Cell viability,"Saos-2 cell line; Saos-2, 48 h, 1 μM",100%
same,% Cell viability,"Saos-2 cell line; Saos-2, 48 h, 5 μM",100%
same,% Cell viability,"Saos-2 cell line; Saos-2, 48 h, 10 μM",100%
same,% Caspase inhibition,"[1]; U937, 24 h",10%
same,% Caspase inhibition,"[1]; U937, 48 h",8%
same,% Caspase inhibition,"[1]; U937, 72 h",2%
same,% Caspase inhibition,"Caspase activity, U2-OS; 24 h",0%
same,% Caspase inhibition,"Caspase activity, U2-OS; 48 h",31%
same,% Caspase inhibition,"Caspase activity, U2-OS; 72 h",33%
same,% Caspase inhibition,"Caspase activity, HeLa; 24 h",6%
same,% Caspase inhibition,"Caspase activity, HeLa; 48 h",7%
same,% Caspase inhibition,"Caspase activity, HeLa; 72 h",11%
same,% Caspase inhibition,"[2]; Saos-2, 24 h",0%
same,% Caspase inhibition,"[2]; Saos-2, 48 h",24%
same,% Cell viability,"U937 cell line; U937, 24 h, 1 μM",99%
same,% Cell viability,"U937 cell line; U937, 24 h, 5 μM",95%
same,% Cell viability,"U937 cell line; U937, 24 h, 10 μM",93%
same,% Cell viability,"U937 cell line; U937, 48 h, 1 μM",100%
same,% Cell viability,"U937 cell line; U937, 48 h, 5 μM",100%
same,% Cell viability,"U937 cell line; U937, 48 h, 10 μM",97%
"Poly-L-glutamic acid-[1-[2-(2,4-Dichlorophenyl)ethyl]-3-(3,3-diphenyl-propyl)-3,7-dioxo[1,4]diazepane-5-carboxylic acid {[({[(5-amino-1-carbamoylpentylcarbamoyl)methyl]-carbamoyl}methyl)carbamoyl]methyl}-[2-(2,4-dichlorophenyl)ethyl]amide] conjugate [III.1]",% Cell viability,"Saos-2 cell line; Saos-2, 24 h, 20 μM drug-eq.",96%
same,% Cell viability,"Saos-2 cell line; Saos-2, 24 h, 50 μM drug-eq.",99%
same,% Cell viability,"Saos-2 cell line; Saos-2, 24 h, 100 μM drug-eq.",93%
same,% Cell viability,"Saos-2 cell line; Saos-2, 24 h, 250 μM drug-eq.",75%
same,% Cell viability,"Saos-2 cell line; Saos-2, 24 h, 500 μM drug-eq.",35%
same,% Cell viability,"Saos-2 cell line; Saos-2, 48 h, 20 μM drug-eq.",95%
same,% Cell viability,"Saos-2 cell line; Saos-2, 48 h, 50 μM drug-eq.",87%
same,% Cell viability,"Saos-2 cell line; Saos-2, 48 h, 100 μM drug-eq.",95%
same,% Cell viability,"Saos-2 cell line; Saos-2, 72 h, 20 μM drug-eq.",86%
same,% Cell viability,"Saos-2 cell line; Saos-2, 72 h, 50 μM drug-eq.",63%
same,% Cell viability,"Saos-2 cell line; Saos-2, 72 h, 100 μM drug-eq.",68%
same,% Inh. caspase,"[1]; U937, 24 h",74%
same,% Inh. caspase,"[1]; U937, 48 h",85%
same,% Inh. caspase,"[1]; U937, 72 h",100%
same,% Inh. caspase activity,[3]; 24 h,27%
same,% Inh. caspase activity,[3]; 48 h,95%
same,% Inh. caspase,"[2]; Saos-2, 24 h",67%
same,% Inh. caspase,"[2]; Saos-2, 48 h",72%
same,% Inh. caspase,"[2]; Saos-2, 72 h",100%
same,% Cell viability,"U937 cell line; U937, 24 h, 20 μM drug-eq.",98%
same,% Cell viability,"U937 cell line; U937, 24 h, 50 μM drug-eq.",96%
same,% Cell viability,"U937 cell line; U937, 24 h, 100 μM drug-eq.",84%
same,% Cell viability,"U937 cell line; U937, 24 h, 250 μM drug-eq.",50%
same,% Cell viability,"U937 cell line; U937, 24 h, 500 μM drug-eq.",27%
same,% Inh. caspase activity,[4]; 24 h,22%
same,% Inh. caspase activity,[4]; 48 h,54%
